US6852735B1, “Siastatin B derivatives having a glycosidase inhibitory activity and processes for producing the same” (Zaidan Hojin Biseibutsu Kagaku Kenkyu Kai, priority 1998, dated 2005)
Counter-ions that a name gives are not always drawn.

Structure (SMILES) | melting point
CC(=O)NC1NCC(CO)C(O)C1O (stereo not drawn) (as salt: hydrochloride) [Formula (V), 3-decarboxy-4-epi-3-hydroxymethyl-siastain B] | 201 to 202 °C (dec.)
O=C(N[C@H]1NC[C@H](CO)[C@@H](O)[C@@H]1O)C(F)(F)F (as salt: hydrochloride) [Formula (X), 6-deacetamido-3-decarboxy-4-epi-3-hydroxymethyl-6-trifluoroacetamido-siastain B] | 88 to 90 °C
